Source: publication doi:10.1101/2024.08.19.608619, “Discovery of potent SARS-CoV-2 nsp3 macrodomain inhibitors uncovers lack of translation to cellular antiviral response” (bioRxiv, 2024)
Read-outs that look alike come from different tables or passages of the source.

What was measured:
SARS-CoV-2 nsp3-mac1 [1] = molecular target: T1, SARS-CoV-2 nsp3-mac1 (Severe acute respiratory syndrome coronavirus 2, UniProt P0DTD1); experiment: biochemical; format: biochemical; settings: SARS-CoV-2 nsp3 macrodomain TR-FRET single point, n=2
SARS-CoV-2 nsp3-mac1 [2] = molecular target: T1, SARS-CoV-2 nsp3-mac1; experiment: biochemical; parameters: SARS-CoV-2 nsp3 macrodomain TR-FRET single point, per cent inhibition, n=2
[3] = read-out: perc_inhibition_mean, batch_name=ASAP-0000337-001
[4] = read-out: perc_inhibition_mean, batch_name=ASAP-0000338-001
[5] = read-out: perc_inhibition_mean, batch_name=ASAP-0000339-001
[6] = read-out: perc_inhibition_mean, batch_name=ASAP-0000340-001
[7] = read-out: perc_inhibition_mean, batch_name=ASAP-0000341-001
[8] = read-out: perc_inhibition_mean, batch_name=ASAP-0000342-001
[9] = read-out: perc_inhibition_mean, batch_name=ASAP-0000343-001
[10] = read-out: perc_inhibition_mean, batch_name=ASAP-0000344-001
[11] = read-out: perc_inhibition_mean, batch_name=ASAP-0000345-001
[12] = read-out: perc_inhibition_mean, batch_name=ASAP-0000346-001
[13] = read-out: perc_inhibition_mean, batch_name=ASAP-0000347-001
[14] = read-out: perc_inhibition_mean, batch_name=ASAP-0000348-001
[15] = read-out: perc_inhibition_mean, batch_name=ASAP-0000349-001
[16] = read-out: perc_inhibition_mean, batch_name=ASAP-0000350-001
[17] = read-out: perc_inhibition_mean, batch_name=ASAP-0000351-001

SMILES | perc_inhibition_mean (SARS-CoV-2 nsp3-mac1 [1]; concentration 49.75 uM) [%] | perc_inhibition_mean (SARS-CoV-2 nsp3-mac1 [1]; concentration 99.5 uM) [%] | also measured
O=C(NCC1(O)CCOCC1)c1cnn2ccc(C3CCN(C(=O)c4ccccc4)CC3)cc12 [ASAP-0000337] | -3.965 | -1.103 | inhibition at 49.75 µM (SARS-CoV-2 nsp3-mac1 [2]; [3]): -3.96%; inhibition at 99.5 µM (SARS-CoV-2 nsp3-mac1 [2]; [3]): -1.1%
CNC[C@@H]1CCCN1C(=O)c1cnn2ccc(C3CCN(C(=O)c4ccccc4)CC3)cc12 [ASAP-0000338] | -1.474 | -2.203 | inhibition at 49.75 µM (SARS-CoV-2 nsp3-mac1 [2]; [4]): -1.47%; inhibition at 99.5 µM (SARS-CoV-2 nsp3-mac1 [2]; [4]): -2.2%
CN(Cc1cn(C)nn1)C(=O)c1ccc(NC(=O)Nc2ccccc2)cc1 [ASAP-0000339] | 0.883 | 0.566 | inhibition at 49.75 µM (SARS-CoV-2 nsp3-mac1 [2]; [5]): 0.883%; inhibition at 99.5 µM (SARS-CoV-2 nsp3-mac1 [2]; [5]): 0.566%
Cn1cc(Br)c(CNC(=O)c2ccc(NC(=O)Nc3ccccc3)cc2)n1 [ASAP-0000340] | 4.308 | 1.196 | inhibition at 49.75 µM (SARS-CoV-2 nsp3-mac1 [2]; [6]): 4.31%; inhibition at 99.5 µM (SARS-CoV-2 nsp3-mac1 [2]; [6]): 1.2%
O=C(NCc1cn[nH]c1)c1cnn2ccc(C3CCN(C(=O)c4ccccc4)CC3)cc12 [ASAP-0000341] | -2.366 | -4.505 | inhibition at 49.75 µM (SARS-CoV-2 nsp3-mac1 [2]; [7]): -2.37%; inhibition at 99.5 µM (SARS-CoV-2 nsp3-mac1 [2]; [7]): -4.5%
O=C(Nc1ccccc1)Nc1ccc(C(=O)Nc2cnnc(Cl)c2)cc1 [ASAP-0000342] | -1.718 | -0.19 | inhibition at 49.75 µM (SARS-CoV-2 nsp3-mac1 [2]; [8]): -1.72%; inhibition at 99.5 µM (SARS-CoV-2 nsp3-mac1 [2]; [8]): -0.19%
O=C1NC[C@@H](C(=O)N(CCC(=O)N2CCNCC2)Cc2cccc(Cl)c2)O1 [ASAP-0000343] | 0.125 | 5.241 | inhibition at 49.75 µM (SARS-CoV-2 nsp3-mac1 [2]; [9]): 0.125%; inhibition at 99.5 µM (SARS-CoV-2 nsp3-mac1 [2]; [9]): 5.24%
O=C(CCN(Cc1cccc(Cl)c1)C(=O)[C@H]1C[C@H](O)C1)N1CCNCC1 [ASAP-0000344] | -2.133 | -3.766 | inhibition at 49.75 µM (SARS-CoV-2 nsp3-mac1 [2]; [10]): -2.13%; inhibition at 99.5 µM (SARS-CoV-2 nsp3-mac1 [2]; [10]): -3.77%
O=C(c1cnc[nH]1)N1CCC(c2ccn3ncc(C(=O)N4CCCCC4)c3c2)CC1 [ASAP-0000345] | 20.282 | 35.337 | inhibition at 49.75 µM (SARS-CoV-2 nsp3-mac1 [2]; [11]): 20.3%; inhibition at 99.5 µM (SARS-CoV-2 nsp3-mac1 [2]; [11]): 35.3%
C[C@H](NC(=O)c1cnn2ccc(C3CCN(C(=O)c4ccccc4)CC3)cc12)c1cccnc1 [ASAP-0000346] | -1.839 | -6.209 | inhibition at 49.75 µM (SARS-CoV-2 nsp3-mac1 [2]; [12]): -1.84%; inhibition at 99.5 µM (SARS-CoV-2 nsp3-mac1 [2]; [12]): -6.21%
O=C(N[C@@H]1CCCNC1=O)c1cnn2ccc(C3CCN(C(=O)c4ccccc4)CC3)cc12 [ASAP-0000347] | -3.161 | -4.869 | inhibition at 49.75 µM (SARS-CoV-2 nsp3-mac1 [2]; [13]): -3.16%; inhibition at 99.5 µM (SARS-CoV-2 nsp3-mac1 [2]; [13]): -4.87%
O=C(NCc1c[nH]nn1)c1cnn2ccc(C3CCN(C(=O)c4ccccc4)CC3)cc12 [ASAP-0000348] | -2.856 | 2.165 | inhibition at 49.75 µM (SARS-CoV-2 nsp3-mac1 [2]; [14]): -2.86%; inhibition at 99.5 µM (SARS-CoV-2 nsp3-mac1 [2]; [14]): 2.17%
CN1CCC[C@@H]1CNC(=O)c1cnn2ccc(C3CCN(C(=O)c4ccccc4)CC3)cc12 [ASAP-0000349] | -4.432 | 1.495 | inhibition at 49.75 µM (SARS-CoV-2 nsp3-mac1 [2]; [15]): -4.43%; inhibition at 99.5 µM (SARS-CoV-2 nsp3-mac1 [2]; [15]): 1.5%
O=C(N[C@H]1CCC[C@H]1C(=O)O)c1cnn2ccc(C3CCN(C(=O)c4ccccc4)CC3)cc12 [ASAP-0000350] | 59.585 | 73.53 | inhibition at 49.75 µM (SARS-CoV-2 nsp3-mac1 [2]; [16]): 59.6%; inhibition at 99.5 µM (SARS-CoV-2 nsp3-mac1 [2]; [16]): 73.5%
Cc1cnc(C(=O)N(CCC(=O)N2CCNCC2)Cc2cccc(Cl)c2)nc1 [ASAP-0000351] | -1.487 | 6.47 | inhibition at 49.75 µM (SARS-CoV-2 nsp3-mac1 [2]; [17]): -1.49%; inhibition at 99.5 µM (SARS-CoV-2 nsp3-mac1 [2]; [17]): 6.47%
